# Reference: patent US12527801B2, “Cell activator of animal cell” (Vitamin C60 BioResearch Corporation, priority 2019, dated 2026)
# Assays:
# [1] = system: Normal human epidermal keratinocytes; test: Action of activating epidermal cells (MTT reduction); assay type: cell-based; details: for Index (%) Mean ± S.D.: 48 h, untreated cells = 100
# Protocol: Normal human epidermal keratinocytes were seeded on 96-well plates at the density of 5.0×10^3 cells/well using a HuMedia KG2 medium (KG2). 24 hours after seeding, the above-mentioned medium was replaced with a HuMedia KB2 medium (KB2) comprising the test sample. AOH and AHX (2-azahypoxanthine) were used as test samples, KG2 as a positive control (P. C.) for the cell activating action was treated instead of the test sample, and cells which were not treated with the samples were used as a negative control. After culturing for 48 hours, the above-mentioned medium was replaced with KB2 comprising 0.2 mg/mL of MTT to perform culturing for 1 hour. After removing the medium, the absorbance at 550 nm and 650 nm of the cell lysate in which 2-propanol was added to lyse the cells was measured. The amount of MTT reduced to blue formazan was obtained by subtracting the absorbance at 650 nm, which was derived from the cell turbidity, from the absorbance at 550 nm. The action of activating epidermal keratinocytes was shown as Index (%), which is a percentage of the absorbance of the cells, which was treated with the test samples, to the absorbance of the cells, which was not treated with the samples (negative control), with the amount of MTT reduced as an index.
# [2] = Test of long-term continuous use (double blind, half face): water content of keratin and TEWL; assay type: in vivo, human; details: conclusion from 8-week use of toner with 0.1% by weight AOH
# Protocol: A test of long-term continuous use (double blind test) was performed using a toner (toner B) comprising 0.1% by weight of AOH of Example 4 and a placebo toner (toner A) having the same composition as that of the toner of Example 4 except that AOH was not comprised to perform evaluation of the water content of keratin and the transepidermal water loss (TEWL). 22 test subjects (females, average age 48.4±4.68 years old) were asked to apply the toner A on the half face and the toner B on the other half face after washing their faces twice in the morning and evening, and this was continued for 8 weeks. The water content of keratin and the TEWL were measured at the start of the test, after 4 weeks, and after 8 weeks. The water content of stratum corneum and the TEWL on the left and right cheek portions of the test subjects were measured using each of SKICON-200EX (Yayoi Co., Ltd.) and Cyclone Moisture Evaporator AS-CT1 (ASCH Japan Co., Ltd.). Analysis of test results was performed on 20 subjects as effective test subjects excluding 2 test subjects whose left-right difference in the water content of keratin at the start of the test was 150 μS or more.
# [3] = Mutagenicity test (Ames test) (OECD TG471); assay type: cell-based
# [4] = In vitro skin sensitization test (DPRA method) (OECD TG442C); assay type: biochemical
smiles,measurement,setting,value
"O=c1[nH]c2nn[nH]c(=O)c2[nH]1 [AOH, 3H-imidazo[4,5-d][1,2,3]triazine-4,6(5H,7H)-dione]",Index (%) Mean ± S.D.,[1]; 3.9 μg/mL,105.7 ± 4.5%
same,Index (%) Mean ± S.D.,[1]; 7.8 μg/mL,108.4 ± 4%
same,Index (%) Mean ± S.D.,[1]; 15.6 μg/mL,108.7 ± 5.6%
same,Index (%) Mean ± S.D.,[1]; 31.3 μg/mL,109.7 ± 5.2%
same,Index (%) Mean ± S.D.,[1]; 62.5 μg/mL,102.3 ± 2.8%
same,Index (%) Mean ± S.D.,[1]; 125 μg/mL,98.6 ± 0.7%
same,Index (%) Mean ± S.D.,[1]; 250 μg/mL,94.2 ± 1.7%
same,Index (%) Mean ± S.D.,[1]; 500 μg/mL,91.9 ± 0.9%
same,cytotoxicity compared,[1]; AOH versus AHX,lower cytotoxicity than AHX
same,change in Index,[1]; concentrations of 7.8 to 31.3 μg/mL,significant increase in Index
same,proliferative effect / cell activating action,[1]; epidermal keratinocytes,has the cell activating action
same,moisturizing effect on the skin,[2],has the moisturizing effect on the skin
same,toxicity in mutagenicity test (Ames test),[3],toxicity was not recognized
same,toxicity in in vitro skin sensitization test (DPRA method),[4],toxicity was not recognized
